Values of other authors in patent publication US20100221330A1, “BUOYANT FORMULATIONS OF BETAINE” (priority 2003, published 2010).

Details: human subjects, betaine supplementation

Question: For `C[N+](C)(C)CC(=O)O` [betaine], which “Effect on blood pressure” value is on record?
Answer: reduces the blood pressure, especially the diastolic pressure
